According to US20130079309A1, “Method Of Treating Acute Lung Injury Using Sphingosine 1 Phosphate Analogs Or Sphingosine 1 Phosphate Receptor Agonists” (The Board of Trustees of the University of Illinois, priority 2010, published 2013):

Key:
S1P receptor 1 (S1PR1) = target: T1, S1P receptor 1 (S1PR1) (Mus musculus, UniProt O08530); assay: S1PR1 levels in lung homogenates of bleomycin mice by Western blotting; format: in vivo; conditions: 14 days after bleomycin
T1 construct: Lung homogenates were collected 14 days after bleomycin instillation; from tissue; host or cells: mouse lung (C57/BL6, bleomycin-injured)
Description: Lung homogenates were collected 14 days after bleomycin instillation. S1PR1 protein expression was determined by Western blotting (representative blots shown), quantified by densitometry, and normalized to actin concentration in the samples. Mean±S.D. is shown. N=2-3 animals per group.
As discussed above, (S)-FTY720-phosphonate maintains S1PR1 expression in mouse lungs after 24 hr relative to other S1PR1 agonists (FIG. 17). The data shown in FIG. 23 extend these observations to 14 days.

HPAEC [1] = assay: Immunofluorescence of F-actin cytoskeletal rearrangement; format: cell-based, human; conditions: 1 μM, 5 min (FTY720 5 and 30 min)
Description: Immunofluorescence was used to assess cytoskeletal rearrangements of […] cells in response to treatment with FTY720 analogs. Confluent HPAEC were stimulated with vehicle control or 1 μM S1P, 1R, 2R, or 3R for 5 min or with FTY720 (1 μM) for 30 min. EC were then fixed in 3.7% formaldehyde for 10 min, permeabilized with 0.25% Triton X-100 for 5 min, washed in PBS, blocked with 2% bovine serum albumin in Tris-buffered saline with Tween 20 for 1 h, and then incubated for 1 h at room temperature with the primary antibody of interest. After washing, EC were incubated with the appropriate secondary antibody conjugated to immunofluorescent dyes (or Texas Red-conjugated phalloidin for actin staining) for 1 h at room temperature. After further washing with Tris-buffered saline with Tween 20, coverslips were mounted using Prolong Anti-Fade Reagent (Invitrogen) and analyzed using a Nikon Eclipse TE2000 inverted microscope (Nikon, Melville, N.Y.).

[2] = system: LPS-induced lung injury in C57BL/6 mice; conditions: single intraperitoneal injection; Peng et al., 2004; cited from earlier work
HPAEC [3] = assay: Transwell transendothelial permeability assay (FITC-dextran); format: cell-based, human; conditions: 1 μM (3R, 3S 25 μM), 1 h before FITC-dextran, 2-h incubation
Description: As a complementary approach to further characterize the barrier-protective effects of these FTY720 analogs in vitro, the permeability of FITC-labeled dextran across the pulmonary EC monolayer was assayed in response to treatment by the FTY720 analogs. […] Data were normalized to unstimulated control. n=3 independent experiments per condition; *, p<0.01 versus unstimulated condition (see FIG. 26).

T1 sequence (O08530 whole entry): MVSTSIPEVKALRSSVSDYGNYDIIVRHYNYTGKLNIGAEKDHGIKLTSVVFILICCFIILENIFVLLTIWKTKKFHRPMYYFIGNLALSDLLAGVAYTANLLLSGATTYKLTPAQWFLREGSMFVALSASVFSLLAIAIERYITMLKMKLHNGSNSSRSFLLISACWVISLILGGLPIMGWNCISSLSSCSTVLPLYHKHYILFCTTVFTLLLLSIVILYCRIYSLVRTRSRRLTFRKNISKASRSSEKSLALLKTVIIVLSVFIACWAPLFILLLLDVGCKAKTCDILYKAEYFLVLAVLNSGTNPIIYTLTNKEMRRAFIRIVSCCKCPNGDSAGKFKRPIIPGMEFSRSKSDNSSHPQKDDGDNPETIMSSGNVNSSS

SMILES	S1PR1 levels in lungs, compared to FTY720-treated animals (S1P receptor 1 (S1PR1))	cortical actin ring formation / F-actin rearrangement (HPAEC [1])	murine LPS induced pulmonary injury, 24 hours after LPS [2]	EC permeability to FITC-dextran vs control EC (HPAEC [3])
CCCCCCCCc1ccc(CC[C@@](N)(CO)CCP(=O)(O)O)cc1 [1S, (S)-3-amino-3-(hydroxymethyl)-5-(4-octylphenyl)pentylphosphonic acid]	higher levels of S1PR1	–	–	–
CCCCCCCCc1ccc(CCC(N)(CO)CO)cc1 [FTY720, 2-amino-2-[2-(4-octylphenyl)ethyl]propane-1,3-diol]	–	failed to elicit cortical actin ring formation	attenuate murine LPS induced-pulmonary injury	significantly decreased permeability
